# Results reported in patent US20250345309A1, “IMMUNE HEALTH IMPROVERS” (Amazentis SA, priority 2024, published 2025).
# What was measured:
# Format in all cases: in vivo, human
# [1] = Laboratory chemistry / biochemical safety analysis
# Experimental: During the baseline and follow-up visits, blood was drawn by a physician or physician's assistant to assess blood biochemistry parameters and haematology. Analysis was performed using clinically validated systems at the University Hospital Frankfurt, Germany.
# plasma cytokines = experiment: Plasma cytokine measurements (LEGENDplex); conditions: d28 vs baseline, 1000 mg/day oral
# Experimental: Inflammatory cytokines were measured using LEGENDplex™ HU Essential Immune Response Panel (BioLegend) according to the manufacturer's instructions. Plasma samples were diluted 1:1 in assay diluent as recommended and technical duplicates were used for both the standard curve and experimental samples. Analysis was performed with the provided software.
# PBMCs = experiment: SCENITH mitochondrial dependency analysis of immune populations; conditions: d28, 1000 mg/day oral
# Experimental: Single cell energetic metabolism by profiling translation inhibition (SCENITH) was used to determine metabolic dependencies of select immune populations, which was performed as described previously (R. J. Argüello et al. Cell metabolism […], 32, 1063-1075). SCENITH reagents kit (inhibitors, puromycin and antibodies) were obtained from www.scenith.com/try-it and used according to the provided protocol. In short, 0.3×10^6 PBMCs were treated for 15 min with Control (DMSO), 2-Deoxy-Glucose (2-DG; 100 mM), Oligomycin (O; 1 μM) and the combination of 2DG and Oligomycin (DGO) or Harringtonine (H; 2 μg/mL). Following metabolic inhibitors, Puromycin (final concentration 10 μg/mL) was added to cultures for 30 min. After puromycin treatment, cells were washed in PBMC was buffer and stained with the following antibodies for 15 min at 4° C.: PE-Cy7 CD4, APC Cy7 CD8, CD45RA AF700, vFkour 450 CD3, CCR7 APC, BV786 CD14 PercP5.5 CD19, PE-CF594 CD16; CD56 BV711, BV510 Viability dye.
# Cells were fixed and permeabilized using the Foxp3 intracellular staining kit (Invitrogen eBioscience) for 1 h. Intracellular staining of puromycin and protein targets was performed for 1 h in diluted (10×) permeabilization buffer at 4° C. Finally, data acquisition was performed using the Cytek Aurora flow cytometer. Samples were unmixed using reference controls generated in combination with stained Ultracomp beads (Fisher Scientific, 01-2222-41) using the SpectroFlo Software. The unmixed FCS files were used for data processing and analysis using FlowJo (BD, version 10.8.1). Immune cell populations of interest were gated manually for downstream analysis. gMFI expression values for Puromycin were exported from FlowJo to calculate metabolic dependencies. The following calculations were used:
# To further characterize the metabolic profile of immune cells on a single-cell resolution, we employed SCENITH, a flow-cytometry based strategy that uses incorporation of Puromycin to infer metabolic dependencies (see Argüello et al., SCENITH: A flow cytometry-based method to functionally profile energy metabolism with single cell resolution, 2020, Cell Metabolism, 32, 1063-1075).
# monocytes = experiment: Phagocytosis assay (pHrodo E. coli Red BioParticles); conditions: ex vivo, d28, 1000 mg/day oral, compared with placebo cohort
# Experimental: The pHrodo™ E. coli Red BioParticles® Phagocytosis Kit for Flow Cytometry (Invitrogen) was used to assess phagocytotic capacity of monocytes. The particles were inactivated, unopsonized Escherichia coli (K-12 strain) that enables measurement of phagocytic activity based on acidification of particles as they are ingested. Thawed PBMCs were immediately used for analysis. 25 μL of E. coli Red BioParticles® were added to 0.25×10^6 PBMCs in 225 μl PBMC medium. As a negative control, 20 μL of PBS were added to 225 μl of PBMCs. Incubation was performed at 37° C. for 45 min, followed by immediate transfer on ice. Cells were then washed in FACS buffer, centrifuged at 1500 rpm for 5 min, followed by another wash step. Cells were stained for 10 min at 4° C. After washing, cells were reconstituted in PBS and subjected to analysis using a Cytek Aurora fow cytometer. Monocytes were identified as CD3−, CD16+ cells.
# T cells = experiment: T cell stimulation assay (αCD3/αCD28 beads, four days); conditions: PBMCs ex vivo
# Experimental: To study the antigen response of T cells, 0.5×10^6 thawed PBMCs were pre-stained with CellTrace Violet (C34557 ThermoFisher Scientific) according to the manufacturer's instructions. After washing, they were plated in a 24 well plate for 24 h to deplete monocyte populations by plastic adherence. Next, cells in suspension were transferred to a new tube and centrifuged at 350 g for 5 min, followed by reconstitution in fresh T cell medium. Cells were stimulated with human αCD3/C28 stimulation beads (Dynabeads, ThermoFirsher) for four days, using a ratio of 25 μl Beads per 0.5×10^6 cells. Following the stimulation period, magnetic beads were discarded via magnetic separation and cells were stained with PE-Cy7 CD4, APC-Cy7CD8, CD45RA FITC, CCR7 AF700 and live/dead ef780. To study cytokine expression, Brefeldin A (Biolegend) was added to stimulated PBMCs for the last 3 hours. Cells were then washed and stained using the panel above, while intracellular staining for cytokine assessment was performed with BD Cytofix/Cytoperm (BD) with 20 min fixation and overnight incubation with αIL-4-CF594, αIFNγ-PE (XMG1.2; 45-7311-82; eBioscience) and αTNFa-APC (MP6-XT22; 563944; BD). Finally, samples were fixed with 1% PFA until data acquisition. To functionally characterize the human immune system after systemic UA supplementation further, proliferative capacity and cytokine secretion of T cells was assessed. PBMCs from both intervention groups were incubated in the presence of αCD3/αCD28 stimulation beads for a total of four days (FIG. 10A).
smiles,measurement,setting,value
O=c1oc2cc(O)ccc2c2ccc(O)cc12 [Urolithin A],Bilirubin (mean ± SD),"[1]; Group A d 28, 1000 mg/day oral, d 0 0.53 ± 0.31, p 0.28 n.s.",0.49 ± 0.26 mg/dL
same,Creatinine (mean ± SD),"[1]; Group A d 28, 1000 mg/day oral, d 0 0.82 ± 0.13, p 0.80 n.s.",0.81 ± 0.11 mg/dL
same,Albumin (mean ± SD),"[1]; Group A d 28, 1000 mg/day oral, d 0 4.54 ± 0.24, p 0.85 n.s.",4.55 ± 0.24 g/dL
same,Uric acid (mean ± SD),"[1]; Group A d 28, 1000 mg/day oral, d 0 4.86 ± 1.43, p 0.25 n.s.",5.04 ± 1.79 mg/dL
same,Total Serum Protein (mean ± SD),"[1]; Group A d 28, 1000 mg/day oral, d 0 7.02 ± 0.38, p 0.59 n.s.",7.06 ± 0.35 g/dL
same,gGT (mean ± SD),"[1]; Group A d 28, 1000 mg/day oral, d 0 24.60 ± 15.90, p 0.07 n.s.",27.13 ± 19.19 U/I
same,AST (mean ± SD),"[1]; Group A d 28, 1000 mg/day oral, d 0 27.26 ± 11.56, p 0.76 n.s.",28.04 ± 16.10 U/I
same,ALT (mean ± SD),"[1]; Group A d 28, 1000 mg/day oral, d 0 28.00 ± 24.02, p 0.38 n.s.",29.44 ± 30.27 U/I
same,HDL cholesterol (mean ± SD),"[1]; Group A d 28, 1000 mg/day oral, d 0 66.06 ± 13.51, p 0.06 n.s.",62.98 ± 17.58 mg/dL
same,AP (mean ± SD),"[1]; Group A d 28, 1000 mg/day oral, d 0 75.40 ± 20.60, p 0.15 n.s.",73.28 ± 19.22 U/I
same,LDL cholesterol (mean ± SD),"[1]; Group A d 28, 1000 mg/day oral, d 0 136.6 ± 33.95, p 0.89 n.s.",136.2 ± 30.56 mg/dL
same,Triglycerides (mean ± SD),"[1]; Group A d 28, 1000 mg/day oral, d 0 154.0 ± 98.53, p 0.53 n.s.",143.2 ± 70.34 mg/dL
same,Total Cholesterol (mean ± SD),"[1]; Group A d 28, 1000 mg/day oral, d 0 212.5 ± 33.60, p 0.89 n.s.",213.0 ± 33.48 mg/dL
same,"Changes in metabolic markers, kidney function parameters and liver enzymes","[1]; after the 28-day intervention period, 1000 mg/day oral",No significant changes
same,Plasma IFN-γ level,plasma cytokines,significantly lower
same,Plasma IL-1β level,plasma cytokines,significantly lower
same,Plasma IL-2 level,plasma cytokines,significantly lower
same,Plasma IL-6 level,plasma cytokines,No difference
same,Plasma IL-8 level,plasma cytokines,No difference
same,Plasma IL-10 level,plasma cytokines,significantly lower
same,Plasma TNF-α level,plasma cytokines,significantly lower
same,Plasma interferon-gamma induced protein (IP-10) level,plasma cytokines,No difference
same,Plasma monocyte chemoattractant protein-1 (MCP-1) level,plasma cytokines,No difference
same,Capacity to shift to OXPHOS when deprived of glycolysis,PBMCs; CD8+ cells,stronger capacity
same,Dependence on glucose metabolism,PBMCs; CD8+ cells,less dependence
same,"Mitochondrial capacity in CD8+ subsets TN, TEM, TCM, TEEF",PBMCs,potentiation
same,Mitochondrial capacity in total CD8+ cells,PBMCs,potentiates
same,Monocyte phagocytosis of E. coli particles,monocytes,significantly enhanced
same,CD8+ TCM/TEM phenotype distribution after CD3 receptor engagement,T cells,no treatment-specific distribution pattern
same,T cell proliferation,"T cells; UA vs placebo, baseline vs d28",no difference
same,CD8+ expression of IFN-γ when stimulated,T cells; baseline vs d28,remained unchanged
same,IL-4 production of antigen challenged CD8+ cells,"T cells; baseline vs d28, no change with placebo",reduced
